Experimental data taken from US11180505B2, “Crystal form of PARP-1 inhibitor and preparation method therefor” (Jiangsu Hengrui Medicine Co., Ltd., priority 2017, dated 2021).
Where two headings read alike, the source gives them in different places.

Experiments:
[1] = accelerated stability test of the crystal form (XRD comparison); assay type: physicochemical; settings: 40° C., relative humidity of 75%, 6 months, XRD compared with 0 month
Method: The sample of Example 1 was subjected to an accelerated stability test (40° C., relative humidity of 75%) for 6 months and then sent to XRD for testing, and compared with the original data to confirm whether the crystal form changed.
Among them, the XRPD pattern of crystal form A of the compound of formula I after 6 months of the accelerated stability test (40° C., relative humidity of 75%) is shown in FIG. 3. The comparative XRPD pattern of crystal form A of the compound of formula I after accelerated stability test is shown in FIG. 4.

[2] = dog, in vivo; cited from earlier work
[3] = target: PARP enzyme (Homo sapiens, UniProt P09874); settings: in vitro; cited from earlier work
[4] = rat, in vivo; cited from earlier work
[5] = system: transplanted tumor; settings: nude-mouse transplanted tumor model; cited from earlier work

Chain of PARP enzyme (P09874 whole entry): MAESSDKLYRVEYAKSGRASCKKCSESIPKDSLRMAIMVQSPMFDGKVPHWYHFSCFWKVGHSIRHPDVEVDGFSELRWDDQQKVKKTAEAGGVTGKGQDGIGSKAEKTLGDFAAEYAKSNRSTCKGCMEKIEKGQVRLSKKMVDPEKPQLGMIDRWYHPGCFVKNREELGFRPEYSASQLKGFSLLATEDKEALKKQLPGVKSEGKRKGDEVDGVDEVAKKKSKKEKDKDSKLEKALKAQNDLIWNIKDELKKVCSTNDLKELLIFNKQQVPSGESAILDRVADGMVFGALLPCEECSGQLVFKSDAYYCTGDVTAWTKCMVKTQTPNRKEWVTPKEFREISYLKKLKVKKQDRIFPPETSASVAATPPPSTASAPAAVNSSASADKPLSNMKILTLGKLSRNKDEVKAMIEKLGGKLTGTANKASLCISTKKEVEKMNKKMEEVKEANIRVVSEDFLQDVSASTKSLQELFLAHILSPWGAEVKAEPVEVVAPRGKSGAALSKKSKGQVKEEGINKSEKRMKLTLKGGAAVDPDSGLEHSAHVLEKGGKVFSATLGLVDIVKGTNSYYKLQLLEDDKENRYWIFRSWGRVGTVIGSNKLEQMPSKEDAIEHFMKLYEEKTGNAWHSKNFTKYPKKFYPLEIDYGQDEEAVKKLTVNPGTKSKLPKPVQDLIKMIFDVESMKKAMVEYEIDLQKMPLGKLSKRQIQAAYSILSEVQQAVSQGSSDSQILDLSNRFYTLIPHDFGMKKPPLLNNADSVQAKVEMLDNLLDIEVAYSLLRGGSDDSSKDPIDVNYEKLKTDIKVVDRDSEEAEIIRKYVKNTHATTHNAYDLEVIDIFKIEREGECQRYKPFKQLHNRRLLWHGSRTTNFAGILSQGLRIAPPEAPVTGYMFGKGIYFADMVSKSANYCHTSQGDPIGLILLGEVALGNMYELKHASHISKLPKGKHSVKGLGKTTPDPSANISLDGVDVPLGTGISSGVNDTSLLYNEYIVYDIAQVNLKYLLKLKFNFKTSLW

| SMILES | crystal form change after accelerated stability test [1] | safety (toxicological data) [2] | inhibition of the activity of PARP enzyme [3] | safety (toxicological data) [4] | inhibition of tumor growth [5] |
| --- | --- | --- | --- | --- | --- |
| O=C(c1cc(Cc2n[nH]c(=O)c3ccccc23)ccc1F)N1CCn2nc(C(F)(F)F)nc2C1 [Example 1] | did not change |  |  |  |  |
| O=C(c1cc(Cc2n[nH]c(=O)c3ccccc23)ccc1F)N1CCn2nc(C(F)(F)F)nc2C1 [formula I] |  | has a corresponding safety | inhibit the activity of PARP enzyme significantly | has a corresponding safety | inhibit tumor growth significantly |
